This assay deals with T1, human FFAR1 (GPR40) (Homo sapiens, UniProt O14842).
T1 construct: Flag; expressed in transfected cells; host or cells: HEK293T
In words: NFAT-RE-based reporter gene activity assay (Dual-Glo luciferase) for GPR40 agonistic activity in co-transfected HEK293T cells. The format is cell-based. As to conditions: 4-hour treatment; for Efficacy (%): class symbols. From the text:
The pcDNA3.0-flag-FFAR1 (GPR40) plasmid was constructed using conventional molecular cloning methods. The main steps were as follows: The full-length cDNA sequence of human FFAR1 (GPR40) (NM_005303.3) was inserted into the HindIII and XbaI restriction sites of the pcDNA3.0 vector via PCR technology, resulting in the pcDNA3.0-flag-FFAR1 (GPR40) plasmid; pGL4.30 [luc2P NFAT-RE] (# E8481) and pRL-TK (#E2241) plasmids were both purchased from Promega; the plasmids were transformed into DH5α E. coli using the CaCl2 method, further cultured and amplified, and then purified using a plasmid extraction kit (TIANGEN, # DP117) to obtain the corresponding plasmid DNA.
HEK293T cells were seeded in a 96-well plate at a density of 1 × 10^4/well one day prior to plasmid transfection. Cell transfection was performed according to the instructions of the transfection reagent FuGENE® HD (Promega, # E2311). The main steps were as follows: Taking one well as an example, plasmids pcDNA3.0-flag-FFAR1 (GPR40), pGL4.30 [luc2P NFAT-RE], and pRL-TK were added at ratios of 50 ng, 50 ng, and 5 ng, respectively, into 10 µL of Opti-MEM™ I medium (Gibco, #11058021) and mixed thoroughly; then, 0.2 µL of FuGENE® HD was added, mixed thoroughly, and allowed to stand at room temperature for 5 minutes; finally, this 10 µL mixture was added to the cell well containing 100 µL of culture medium. 24 hours after co-transfection, the compounds were serially diluted at half-logarithmic intervals with 1 µM as the highest concentration, resulting in 10 concentration gradients, which were added to the cell culture medium for a 4-hour treatment.
After 4 hours of compound treatment, the cells were assayed according to the instructions of the Dual-Glo® Luciferase Assay System (Promega, # E2940). The main steps were as follows: 50 µL of culture medium was aspirated from each well and discarded, followed by the addition of 50 µL of Dual-Glo® Luciferase Reagent, and the mixture was shaken at room temperature for 10 minutes. Then, 80 µL of the lysate reaction solution was transferred to a white opaque optiPlate-96 well plate, and the luminescence signal of Firefly luciferase (Firefly-Luc) was measured using an MD i3x multifunctional microplate reader. Subsequently, 40 µL of Dual-Glo® Stop & Glo® Reagent was added, and the mixture was shaken at room temperature for 10 minutes. Finally, the luminescence signal of Renilla luciferase (Renilla-Luc) was measured using the MD i3x multifunctional microplate reader. The ratio of Firefly-Luc/Renilla-Luc was used as the compound's agonistic activity toward GPR40, and normalization was performed using the ratio of the solvent DMSO group. A dose-response curve was fitted using a four-parameter model with GraphPad Prism 8.0 software to calculate the EC50 value.
A general note: A reporter such as luciferase makes a cellular process visible.

T1 sequence (O14842 whole entry): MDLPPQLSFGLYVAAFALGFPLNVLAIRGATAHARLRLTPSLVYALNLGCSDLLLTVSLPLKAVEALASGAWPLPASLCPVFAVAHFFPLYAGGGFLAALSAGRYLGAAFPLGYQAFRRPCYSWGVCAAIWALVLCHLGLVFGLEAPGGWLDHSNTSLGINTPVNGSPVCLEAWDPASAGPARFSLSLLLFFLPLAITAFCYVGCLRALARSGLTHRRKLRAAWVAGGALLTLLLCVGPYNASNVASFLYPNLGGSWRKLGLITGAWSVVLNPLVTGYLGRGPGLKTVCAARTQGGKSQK

What is called EC50 is the concentration at which the effect is half-maximal. The low end stands for higher potency in that assay, the high end for lower potency in that assay. With `COc1cccc(N2CCC(c3oc4cc(C(CC(=O)O)C5CC5)ccc4c3-c3cn(C(C)C)cn3)CC2)c1` (stereo not shown) [Compound 104], the EC50 was over 0.5 µM and the “Efficacy (%)” value is “†† (150 ≥ Efficacy (%) > 100)”.

Turning to `COc1cccc(N2CCC(c3oc4cc([C@@H](CC(=O)O)C5CC5)ccc4c3-c3csc(OC)n3)CC2)c1` [Compound 105], the EC50 fell in the range of 0.01 to 0.1 µM and the “Efficacy (%)” value was “†† (150 ≥ Efficacy (%) > 100)”.

Take `COc1cccc(N2CCC(c3oc4cc(C(CC(=O)O)C5CC5)ccc4c3-c3csc(C(C)C)n3)CC2)c1` (stereo not shown) [Compound 106]: the EC50 lay in the range of 0.01 to 0.1 µM and the “Efficacy (%)” value is recorded as “†† (150 ≥ Efficacy (%) > 100)”.

As for `COc1cccc(N2CCC(c3oc4cc([C@@H](CC(=O)O)C5CC5)ccc4c3-c3csc(C(C)C)n3)CC2)c1` [Compound 107], the EC50 was 0.1 to 0.5 µM and the “Efficacy (%)” value was “††† (Efficacy (%) > 150)”.

On to `COc1cccc(N2CCC(c3oc4cc([C@@H](CC(=O)O)C5CC5)ccc4c3-c3csc(C(C)(C)C)n3)CC2)c1` [Compound 108], for which the EC50 was 0.01 to 0.1 µM and the “Efficacy (%)” value is “††† (Efficacy (%) > 150)”.

Consider `COc1cccc(N2CCC(c3oc4cc([C@@H](CC(=O)O)C5CC5)ccc4c3-c3nc(C(C)C)cs3)CC2)c1` [Compound 109], for which the EC50 lay within 0.1 to 0.5 µM and the “Efficacy (%)” value was “†† (150 ≥ Efficacy (%) > 100)”.

For `COc1cccc(N2CCC(c3oc4cc([C@@H](CC(=O)O)C5CC5)ccc4c3-c3nc(C(C)(C)C)cs3)CC2)c1` [Compound 110], the EC50 fell in the range of 0.01 to 0.1 µM and the “Efficacy (%)” value is “†† (150 ≥ Efficacy (%) > 100)”.

Take `COc1cccc(N2CCC(c3oc4cc(C(CC(=O)O)C5CC5)ccc4c3-c3ncc(C(C)C)s3)CC2)c1` (stereo not shown) [Compound 111]: the EC50 was in the range of 0.01 to 0.1 µM and the “Efficacy (%)” value is “††† (Efficacy (%) > 150)”.

For the compound `COc1cccc(N2CCC(c3oc4cc([C@@H](CC(=O)O)C5CC5)ccc4c3-c3ncc(C(C)C)s3)CC2)c1` [Compound 112], the EC50 lay within 0.01 to 0.1 µM and the “Efficacy (%)” value is “†† (150 ≥ Efficacy (%) > 100)”.

With `COc1cccc(N2CCC(c3oc4cc([C@@H](CC(=O)O)C5CC5)ccc4c3-c3ncc(C(C)(C)C)s3)CC2)c1` [Compound 113], the 50% effective concentration (EC50) is at most 0.01 µM and the “Efficacy (%)” value is “†† (150 ≥ Efficacy (%) > 100)”.

Regarding `COc1cccc(N2CCC(c3oc4cc(C(CC(=O)O)C5CC5)ccc4c3-c3cc(C(C)(C)C)on3)CC2)c1` (stereo not shown) [Compound 114], the EC50 is 0.01 to 0.1 µM and the “Efficacy (%)” value is reported as “†† (150 ≥ Efficacy (%) > 100)”.

For the compound `COc1cccc(N2CCC(c3oc4cc(C(CC(=O)O)C5CC5)ccc4c3-c3cc(C(C)(C)C)no3)CC2)c1` (stereo not shown) [Compound 115], the EC50 is at most 0.01 µM and the “Efficacy (%)” value is given as “†† (150 ≥ Efficacy (%) > 100)”.

In the case of `COc1cccc(N2CCC(c3oc4cc([C@@H](CC(=O)O)C5CC5)ccc4c3-c3cc(C(C)(C)C)no3)CC2)c1` [Compound 116], the EC50 was at most 0.01 µM and the “Efficacy (%)” value is reported as “†† (150 ≥ Efficacy (%) > 100)”.

Take `COc1cccc(N2CCC(c3oc4cc([C@@H](CC(=O)O)C5CC5)ccc4c3-c3nc(C(C)(C)C)co3)CC2)c1` [Compound 117]: the EC50 is 0.01 to 0.1 µM and the “Efficacy (%)” value is reported as “†† (150 ≥ Efficacy (%) > 100)”.

`COc1cccc(N2CCC(c3oc4cc(C(CC(=O)O)C5CC5)ccc4c3-c3nnc(C(C)(C)C)s3)CC2)c1` (stereo not shown) [Compound 118]: the half-maximal effective concentration (EC50) is 0.01 to 0.1 µM and the “Efficacy (%)” value is on record as “†† (150 ≥ Efficacy (%) > 100)”.

Consider `COc1cccc(N2CCC(c3oc4cc(C(CC(=O)O)C5CC5)ccc4c3-c3cn(C)nn3)CC2)c1` (stereo not shown) [Compound 120], for which the EC50 was over 0.5 µM and the “Efficacy (%)” value is “†† (150 ≥ Efficacy (%) > 100)”.

For `COc1cccc(N2CCC(c3oc4cc(C(CC(=O)O)C5CC5)ccc4c3-c3ncn(C)n3)CC2)c1` (stereo not shown) [Compound 121], the EC50 is over 0.5 µM and the “Efficacy (%)” value was “†† (150 ≥ Efficacy (%) > 100)”.

Take `COc1cccc(N2CCC(c3oc4cc(C(CC(=O)O)C5CC5)ccc4c3-c3noc(C(C)(C)C)n3)CC2)c1` (stereo not shown) [Compound 122]: the EC50 lay within 0.01 to 0.1 µM and the “Efficacy (%)” value was “†† (150 ≥ Efficacy (%) > 100)”.

For the compound `COc1cccc(N2CCC(c3oc4cc(C(CC(=O)O)C5CC5)ccc4c3-c3nnc(C(C)C)o3)CC2)c1` (stereo not shown) [Compound 123], the EC50 lay in the range of 0.1 to 0.5 µM and the “Efficacy (%)” value is “†† (150 ≥ Efficacy (%) > 100)”.

For `COc1cccc(N2CCC(c3oc4cc(C(CC(=O)O)C5CC5)ccc4c3-c3nnc(C(C)(C)C)o3)CC2)c1` (stereo not shown) [Compound 124], the EC50 was 0.01 to 0.1 µM and the “Efficacy (%)” value is “†† (150 ≥ Efficacy (%) > 100)”.

As to `COc1cccc(N2CCC(c3oc4cc([C@@H](CC(=O)O)C5CC5)ccc4c3-c3nnc(C(C)(C)C)o3)CC2)c1` [Compound 125], the EC50 was in the range of 0.01 to 0.1 µM and the “Efficacy (%)” value is given as “†† (150 ≥ Efficacy (%) > 100)”.

On to `COc1cccc(N2CCC(c3oc4cc(C(CC(=O)O)C5CC5)ccc4c3-c3nnc(C(C)(C)C(F)(F)F)o3)CC2)c1` (stereo not shown) [Compound 126], for which the EC50 fell in the range of 0.01 to 0.1 µM and the “Efficacy (%)” value was “†† (150 ≥ Efficacy (%) > 100)”.

Turning to `COc1cccc(N2CCC(c3oc4cc(C(CC(=O)O)C5CC5)ccc4c3-c3cnn(C(C)(C)C#N)c3)CC2)c1` (stereo not shown) [Compound 127], the EC50 fell in the range of 0.1 to 0.5 µM and the “Efficacy (%)” value is reported as “††† (Efficacy (%) > 150)”.

For `CCC(C)(C)c1nnc(-c2c(C3CCN(c4cccc(OC)c4)CC3)oc3cc(C(CC(=O)O)C4CC4)ccc23)o1` (stereo not shown) [Compound 128], the EC50 lay in the range of 0.01 to 0.1 µM and the “Efficacy (%)” value was “†† (150 ≥ Efficacy (%) > 100)”.

In the case of `CCCC(C)(C)c1nnc(-c2c(C3CCN(c4cccc(OC)c4)CC3)oc3cc(C(CC(=O)O)C4CC4)ccc23)o1` (stereo not shown) [Compound 129], the EC50 lay in the range of 0.01 to 0.1 µM and the “Efficacy (%)” value is “†† (150 ≥ Efficacy (%) > 100)”.

With `CCCCC(C)(C)c1nnc(-c2c(C3CCN(c4cccc(OC)c4)CC3)oc3cc(C(CC(=O)O)C4CC4)ccc23)o1` (stereo not shown) [Compound 130], the EC50 is 0.01 to 0.1 µM and the “Efficacy (%)” value is on record as “†† (150 ≥ Efficacy (%) > 100)”.

In the case of `CCCCCC(C)(C)c1nnc(-c2c(C3CCN(c4cccc(OC)c4)CC3)oc3cc(C(CC(=O)O)C4CC4)ccc23)o1` (stereo not shown) [Compound 131], the EC50 was in the range of 0.01 to 0.1 µM and the “Efficacy (%)” value is reported as “†† (150 ≥ Efficacy (%) > 100)”.

With `COC(=O)C(C)(C)n1cc(-c2c(C3CCN(c4cccc(OC)c4)CC3)oc3cc(C(CC(=O)O)C4CC4)ccc23)cn1` (stereo not shown) [Compound 132], the EC50 was 0.1 to 0.5 µM and the “Efficacy (%)” value is “††† (Efficacy (%) > 150)”.

As to `COc1cccc(N2CCC(c3oc4cc(C(CC(=O)O)C5CC5)ccc4c3-c3nnc(-c4ccccc4)o3)CC2)c1` (stereo not shown) [Compound 133], the EC50 was in the range of 0.1 to 0.5 µM and the “Efficacy (%)” value is “† (100 ≥ Efficacy (%) > 50)”.

Turning to `COc1cccc(N2CCC(c3oc4cc(C(CC(=O)O)C5CC5)ccc4c3-c3nnc(C4(C)CC4)o3)CC2)c1` (stereo not shown) [Compound 134], the EC50 fell in the range of 0.1 to 0.5 µM and the “Efficacy (%)” value is on record as “† (100 ≥ Efficacy (%) > 50)”.

As to `COc1cccc(N2CCC(c3oc4cc(C(CC(=O)O)C5CC5)ccc4c3-c3nnc(C(C)(C)CC4CCCCC4)o3)CC2)c1` (stereo not shown) [Compound 135], the EC50 fell in the range of 0.01 to 0.1 µM and the “Efficacy (%)” value is recorded as “†† (150 ≥ Efficacy (%) > 100)”.

On to `COc1cccc(N2CCC(c3oc4cc(C(CC(=O)O)C5CC5)ccc4c3-c3nnc(C(C)(C)CN4CCCCC4)o3)CC2)c1` (stereo not shown) [Compound 137], for which the EC50 fell in the range of 0.01 to 0.1 µM and the “Efficacy (%)” value is “††† (Efficacy (%) > 150)”.

As to `COc1cccc(N2CCC(c3oc4cc(C(CC(=O)O)C5CC5)ccc4c3-c3nnc(C45CC6CC(CC(C6)C4)C5)o3)CC2)c1` (stereo not shown) [Compound 139], the EC50 is 0.1 to 0.5 µM and the “Efficacy (%)” value is “†† (150 ≥ Efficacy (%) > 100)”.

`COc1cccc(N2CCC(c3oc4cc(C(CC(=O)O)C5CC5)ccc4c3-c3nnc(C4(C)CCCCC4)o3)CC2)c1` (stereo not shown) [Compound 140]: the EC50 fell in the range of 0.1 to 0.5 µM and the “Efficacy (%)” value is given as “††† (Efficacy (%) > 150)”.

For `COc1cccc(N2CCC(c3oc4cc([C@@H](CC(=O)O)C5CC5)ccc4c3-c3nnc(C(C)(C)C)o3)CC2)c1F` [Compound 141], the EC50 is at most 0.01 µM and the “Efficacy (%)” value is “††† (Efficacy (%) > 150)”.

The values are drawn from patent EP4682145A1, “BENZOHETEROCYCLIC COMPOUND, AND PREPARATION METHOD THEREFOR AND USE THEREOF” (Cascade Pharmaceuticals, Inc., priority 2023, dated 2024).
